From US20140106967A1, “AUXIN PLANT GROWTH REGULATORS” (The Governors of The University of Alberta, priority 2011, published 2014)

Legend:
[1] = tested on: PsGA20ox1, PsGA3ox1, PsGA2ox1; test: GA biosynthesis/catabolism gene expression in pea pericarp; assay type: in vivo, Pisum sativum; conditions: 24 h treatment period
Procedure: (§1) During early pea fruit growth, the physiological roles of 4-chloroindole-3-acetic acid (4-Cl-IAA) and IAA, both natural pea auxins, in regulating gibberellin (GA) 20-oxidase gene expression (PsGA20ox1) were tested with 4-position, ring-substituted auxins that have a range of biological activities (fruit growth). The effect of seeds, and natural and synthetic auxins (4-Cl-IAA, and IAA; 4-Me-IAA, 4-Et-IAA and 4-F-IAA, respectively), and auxin concentration (4-Cl-IAA) on PsGA20ox1 mRNA levels in pea pericarp were investigated over a 24 h treatment period. The ability of certain 4-substituted auxins to increase PsGA20ox1 mRNA levels in deseeded pericarp was correlated with their ability to stimulate pericarp growth.

[2] = tested on: canola cv. Peace; test: Greenhouse canola study, foliar auxin spray at green bud stage, with or without heat stress (Tables C1-C4); assay type: in vivo, Brassica napus; conditions: for % pod set / Seed yield / Total number of flowers / Total number of pods with developing seeds / Total number of racemes / Total number undeveloped pods: heat stress 33° C. 6 h/day, 6 days (Table C2); for % pod set per plant / Seed yield (g) per plant / Total number of flowers per plant / Total number of pods with developing seeds per plant / Total number of racemes per plant / Total number undeveloped pods per plant: non-heat stress (Table C1)
Procedure: Canola seeds (Brassica napus) from the cultivar Peace were planted at an approximate depth of 1 cm in 5 inch square plastic pots (6 inch pot depth; 4 seeds per pot) in 1:1 Sunshine #4 potting mix (Sun Gro Horticulture, Vancouver, Canada) and sand. The seedlings were thinned to one seedling per pot approximately 2 weeks after seeding. Plants were grown at the University of Alberta in a greenhouse from Nov. 14, 2011 to Mar. 5, 2012. The average temperature was approximately 18° C. day/16° C. night (Nov. 14, 2011 to Feb. 8, 2012) then 21° C. day/19° C. night from Feb. 8 to Mar. 5, 2012. The plants also received supplemental lighting daily (average photon flux density of 250 μE m^−2s^−2) for 16 hours per day (from 6 am to 10 pm).
The auxins, 4-methyl-indole-3-acetic acid (4-ME-IAA) or 4-chloro-indole-3-acetic acid (4-Cl-IAA) at 1×10^−7, 1×10^−6, 1×10^−5, or 1×10^−4M in aqueous 0.1% (v/v) Tween 80 or a control solution (aqueous 0.1% [v/v] Tween 80) were applied one time as a foliar spray to canola plants at the green bud stage (BBCH scale 51; prior to bolting when flower buds are visible from above, but they are tightly clustered and have not extended above smallest leaves surrounding the inflorescence). The experiment was arranged in a completely randomized design in the greenhouse.
The heat stress treatment was imposed by moving plants to receive the heat stress from the greenhouse into a growth chamber for 6 days. The light cycle began at 7:00 hours at a 19° C. air temperature. The heat treatment began at 11:00 hours (33° C. air temperature) and was maintained for 6 hours (until 17:00 hours). Following the heat treatment, the remainder of the light cycle was maintained at a 22° C. air temperature. The dark cycle (began at 23:00 hours) was maintained at 17° C. The photoperiod was 16 h light/8 h dark at an average photon flux density of 492 μE m^−2s^−2 using 54W/835/HO high fluorescent bulbs, Phillips, Holland. This heat treatment cycle was imposed for 6 days. The plants were returned to the greenhouse after the heat stress treatment to develop to maturity.

[3] = tested on: pea pericarp; test: Split-pericarp assay: growth of deseeded pea pericarps attached to the plant; assay type: in vivo, Pisum sativum
Source text: In addition to GAs, developing pea seeds and pericarps contain two auxins, 4-chloroindole-3-acetic acid (4-Cl-IAA) and indole-3-acetic acid (IAA) (Magnus et al. 1997). A split-pericarp assay where test compounds are applied to the inner wall of split and deseeded pericarps that are still attached to the plant has been developed to examine the effects of exogenously applied growth substances on pericarp growth.
as §1

Cc1cccc2[nH]cc(CC(=O)O)c12 [4-ME-IAA, 4-methyl-indole-3-acetic acid]
PsGA20ox1 mRNA levels in deseeded pericarp [1]: second most active auxin
leaf epinasty ([2]; 1×10^−4 M, 24 hours after treatment, milder under heat stress): leaf epinasty was observed
% pod set ([2]; 1×10^−4 M): 60 ± 1%
Seed yield ([2]; 1×10^−4 M): 6.0 ± 1.0 g
Total number of flowers ([2]; 1×10^−4 M): 326 ± 34
Total number of pods with developing seeds ([2]; 1×10^−4 M): 196 ± 19
Total number of racemes ([2]; 1×10^−4 M): 12 ± 1
Total number undeveloped pods ([2]; 1×10^−4 M): 34 ± 10
% pod set per plant ([2]; 1×10^−4 M): 57 ± 2%
Seed yield (g) per plant ([2]; 1×10^−4 M): 4.9 ± 0.4 g
Total number of flowers per plant ([2]; 1×10^−4 M): 261 ± 14
Total number of pods with developing seeds per plant ([2]; 1×10^−4 M): 148 ± 9
Total number of racemes per plant ([2]; 1×10^−4 M): 11 ± 1
Total number undeveloped pods per plant ([2]; 1×10^−4 M): 16 ± 2
increase in total number of flowers per plant vs control ([2]; 1×10^−5 M, heat stress): 43%
increase in total number of racemes per plant vs control ([2]; 1×10^−5 M, heat stress): 38%
% pod set ([2]; 1×10^−5 M): 50 ± 2%
Seed yield ([2]; 1×10^−5 M): 5.9 ± 1.2 g
Total number of flowers ([2]; 1×10^−5 M): 520 ± 102
Total number of pods with developing seeds ([2]; 1×10^−5 M): 259 ± 55
Total number of racemes ([2]; 1×10^−5 M): 18 ± 2
Total number undeveloped pods ([2]; 1×10^−5 M): 64 ± 13
% pod set per plant ([2]; 1×10^−5 M): 62 ± 5%
Seed yield (g) per plant ([2]; 1×10^−5 M): 5.7 ± 0.7 g
Total number of flowers per plant ([2]; 1×10^−5 M): 265 ± 14
Total number of pods with developing seeds per plant ([2]; 1×10^−5 M): 165 ± 18
Total number of racemes per plant ([2]; 1×10^−5 M): 10 ± 0
Total number undeveloped pods per plant ([2]; 1×10^−5 M): 22 ± 6
% pod set ([2]; 1×10^−6 M): 44 ± 7%
Total number of flowers ([2]; 1×10^−6 M): 435 ± 89
Total number of pods with developing seeds ([2]; 1×10^−6 M): 167 ± 15
Total number of racemes ([2]; 1×10^−6 M): 13 ± 2
Total number undeveloped pods ([2]; 1×10^−6 M): 71 ± 37
% pod set per plant ([2]; 1×10^−6 M): 62 ± 3%
Total number of flowers per plant ([2]; 1×10^−6 M): 250 ± 21
Total number of pods with developing seeds per plant ([2]; 1×10^−6 M): 155 ± 16
Total number of racemes per plant ([2]; 1×10^−6 M): 10 ± 1
Total number undeveloped pods per plant ([2]; 1×10^−6 M): 17 ± 5
% pod set ([2]; 1×10^−7 M): 52 ± 4%
Seed yield ([2]; 1×10^−7 M): 5.4 ± 0.9 g
Total number of flowers ([2]; 1×10^−7 M): 418 ± 25
Total number of pods with developing seeds ([2]; 1×10^−7 M): 213 ± 6
Total number of racemes ([2]; 1×10^−7 M): 14 ± 1
Total number undeveloped pods ([2]; 1×10^−7 M): 50 ± 26
increase in total number of pods with developing seeds per plant vs control ([2]; 1×10^−7 M, heat stress (6 hours at 33° C. per day for 6 days)): 13%
increase in seed yield vs control ([2]; 1×10^−7 M, non-heat stress): 22%
increase in total number of pods with developing seeds per plant vs control ([2]; 1×10^−7 M, non-heat stress): 10%
% pod set per plant ([2]; 1×10^−7 M): 66 ± 1%
Seed yield (g) per plant ([2]; 1×10^−7 M): 5.5 ± 0.4 g
Total number of flowers per plant ([2]; 1×10^−7 M): 256 ± 12
Total number of pods with developing seeds per plant ([2]; 1×10^−7 M): 170 ± 7
Total number of racemes per plant ([2]; 1×10^−7 M): 10 ± 1
Total number undeveloped pods per plant ([2]; 1×10^−7 M): 17 ± 3
pericarp growth (biological activity) [3]: second most biologically active auxin
